Among the data in patent US8916593B2, “Alkoxy-substituted 2-aminopyridines as ALK inhibitors” (Pfizer Inc., priority 2010, dated 2014) are IC50 and Ki values, retold here.

As a reminder, the IC50 is the concentration at which inhibition is half-maximal. As a reminder, the Ki is a dissociation constant, usually derived from enzyme kinetics or from competition with a known ligand.

Structures are written as SMILES. Where a name gives a salt, the structure may show the parent alone.

The target of one assay is T1, ALK enzyme (Homo sapiens, UniProt Q9UM73).
T1 construct: purchased Invitrogen PV4185
T1 sequence (Q9UM73 19-1620): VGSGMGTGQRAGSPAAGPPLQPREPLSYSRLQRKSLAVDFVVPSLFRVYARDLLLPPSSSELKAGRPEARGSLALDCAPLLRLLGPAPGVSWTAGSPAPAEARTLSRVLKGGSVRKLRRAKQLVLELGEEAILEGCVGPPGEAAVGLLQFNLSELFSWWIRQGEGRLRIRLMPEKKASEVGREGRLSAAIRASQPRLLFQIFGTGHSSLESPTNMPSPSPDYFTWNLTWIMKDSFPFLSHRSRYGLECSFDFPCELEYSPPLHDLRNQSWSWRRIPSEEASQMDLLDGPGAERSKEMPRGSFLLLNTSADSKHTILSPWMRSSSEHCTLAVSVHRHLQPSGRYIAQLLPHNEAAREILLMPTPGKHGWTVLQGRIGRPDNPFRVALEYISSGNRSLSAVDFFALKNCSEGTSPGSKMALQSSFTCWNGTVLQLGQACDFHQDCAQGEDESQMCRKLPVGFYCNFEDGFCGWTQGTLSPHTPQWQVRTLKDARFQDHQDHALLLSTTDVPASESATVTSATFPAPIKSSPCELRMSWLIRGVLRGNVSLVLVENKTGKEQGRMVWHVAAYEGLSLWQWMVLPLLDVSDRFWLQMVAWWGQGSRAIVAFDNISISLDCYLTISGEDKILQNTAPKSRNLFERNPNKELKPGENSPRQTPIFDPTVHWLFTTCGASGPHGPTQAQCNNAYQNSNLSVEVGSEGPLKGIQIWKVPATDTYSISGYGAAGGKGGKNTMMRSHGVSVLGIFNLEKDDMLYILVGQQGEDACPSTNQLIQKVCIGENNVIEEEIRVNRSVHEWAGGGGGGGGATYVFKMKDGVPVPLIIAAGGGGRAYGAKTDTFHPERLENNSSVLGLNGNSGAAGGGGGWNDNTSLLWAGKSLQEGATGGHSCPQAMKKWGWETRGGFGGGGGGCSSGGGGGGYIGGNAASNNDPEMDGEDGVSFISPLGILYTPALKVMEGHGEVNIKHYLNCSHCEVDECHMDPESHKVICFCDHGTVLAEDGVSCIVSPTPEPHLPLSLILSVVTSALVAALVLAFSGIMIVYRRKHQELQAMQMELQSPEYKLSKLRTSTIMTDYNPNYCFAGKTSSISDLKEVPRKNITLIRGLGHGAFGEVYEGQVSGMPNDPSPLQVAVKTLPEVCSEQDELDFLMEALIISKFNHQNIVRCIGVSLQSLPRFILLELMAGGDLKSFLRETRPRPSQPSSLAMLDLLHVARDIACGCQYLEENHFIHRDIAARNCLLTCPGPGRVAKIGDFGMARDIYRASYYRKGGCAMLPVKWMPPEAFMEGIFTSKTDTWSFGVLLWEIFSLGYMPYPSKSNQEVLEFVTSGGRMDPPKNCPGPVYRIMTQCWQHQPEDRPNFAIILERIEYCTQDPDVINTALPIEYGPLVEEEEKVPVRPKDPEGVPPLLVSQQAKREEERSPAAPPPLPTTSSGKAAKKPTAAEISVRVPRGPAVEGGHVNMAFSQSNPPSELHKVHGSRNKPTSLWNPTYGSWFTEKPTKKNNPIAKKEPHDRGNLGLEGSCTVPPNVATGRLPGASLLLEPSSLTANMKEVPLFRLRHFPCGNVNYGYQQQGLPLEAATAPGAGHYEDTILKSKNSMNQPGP
Put plainly: ALK enzymatic activity assay 1. Type of assay: biochemical. As to the method:
ALK Enzymatic Activity Assay 1
Compounds were added at a final concentration of 1% DMSO in half-log dilutions, starting at 20 μM final concentration. The reactions were initiated by the addition of 10 μL of peptide/ATP mix to 10 μL enzyme and 2 μL of compound in 384-well plate. […] On the 12-sipper chip, substrate and phosphorylated product were separated with an upstream voltage of −2650 V, a downstream voltage of −500 V, and a screen pressure of −1.5 psi. The relative peak heights of substrate and product were measured and ratios were calculated using HTS Well Analyzer Software version 5.2.43 from the manufacturer.

For the next assay, the target named is T2, cMet enzyme (Homo sapiens, UniProt P08581).
T2 construct: RTC Lot#032006
T2 sequence (P08581 25-1390): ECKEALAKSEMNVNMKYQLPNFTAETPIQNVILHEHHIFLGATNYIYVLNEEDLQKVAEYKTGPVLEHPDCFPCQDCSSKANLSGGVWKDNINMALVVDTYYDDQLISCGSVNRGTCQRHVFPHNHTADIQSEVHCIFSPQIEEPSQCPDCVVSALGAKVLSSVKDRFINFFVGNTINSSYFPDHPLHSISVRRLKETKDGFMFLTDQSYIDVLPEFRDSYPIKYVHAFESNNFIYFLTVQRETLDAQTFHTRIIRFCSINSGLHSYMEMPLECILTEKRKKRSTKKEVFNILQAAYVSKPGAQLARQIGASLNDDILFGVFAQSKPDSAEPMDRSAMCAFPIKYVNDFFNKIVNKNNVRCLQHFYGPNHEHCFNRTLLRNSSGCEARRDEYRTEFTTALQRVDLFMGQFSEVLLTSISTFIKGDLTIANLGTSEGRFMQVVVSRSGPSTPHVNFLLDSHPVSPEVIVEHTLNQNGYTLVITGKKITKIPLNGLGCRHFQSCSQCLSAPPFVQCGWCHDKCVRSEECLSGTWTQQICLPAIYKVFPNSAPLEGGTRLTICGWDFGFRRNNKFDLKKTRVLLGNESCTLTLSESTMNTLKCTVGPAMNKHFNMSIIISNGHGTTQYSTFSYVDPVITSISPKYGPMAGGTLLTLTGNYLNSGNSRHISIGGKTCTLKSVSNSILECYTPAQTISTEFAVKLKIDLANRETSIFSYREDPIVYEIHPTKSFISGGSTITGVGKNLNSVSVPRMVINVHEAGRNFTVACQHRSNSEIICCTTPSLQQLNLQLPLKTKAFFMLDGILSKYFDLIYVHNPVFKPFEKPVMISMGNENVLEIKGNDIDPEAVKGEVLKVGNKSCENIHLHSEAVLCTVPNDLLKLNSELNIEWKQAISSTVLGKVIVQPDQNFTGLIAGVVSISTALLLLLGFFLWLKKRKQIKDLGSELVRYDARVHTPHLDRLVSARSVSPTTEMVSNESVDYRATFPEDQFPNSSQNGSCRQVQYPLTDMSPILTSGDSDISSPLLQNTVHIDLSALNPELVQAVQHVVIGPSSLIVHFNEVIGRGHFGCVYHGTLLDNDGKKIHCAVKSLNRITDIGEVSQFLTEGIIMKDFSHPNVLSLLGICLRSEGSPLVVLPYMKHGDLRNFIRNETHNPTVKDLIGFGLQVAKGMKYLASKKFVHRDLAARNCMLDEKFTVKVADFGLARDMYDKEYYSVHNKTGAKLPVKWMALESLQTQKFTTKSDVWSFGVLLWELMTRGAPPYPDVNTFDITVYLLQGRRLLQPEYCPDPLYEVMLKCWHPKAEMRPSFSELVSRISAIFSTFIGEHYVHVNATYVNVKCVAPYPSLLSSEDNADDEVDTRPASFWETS
The experiment in a line: cMet enzymatic activity assay. Type of assay: biochemical. The note with it: purified cMet enzyme 7.5 nM, ATP 17 μM (Km). As to the method: cMet Enzymatic Activity Assay
Compounds were added at a final concentration of 2% DMSO in half-log dilutions, starting at 20 μM final concentration. The reactions were initiated by addition of 10 μL of peptide/ATP mix to 10 μL enzyme and 5 μL of compound in 384-well plate. […] Substrate and phosphorylated product were separated with an upstream voltage of −2650 V, a downstream voltage of −500V, and a screen pressure of −1.5 psi. The relative peak heights of substrate and product were measured and ratios were calculated using HTS Well Analyzer Software version 5.2.43 from the manufacturer.

The target of assay [1] is T3, human recombinant wild-type ALK kinase domain (amino acids 1093-1411) (Homo sapiens, UniProt Q9UM73).
T3 construct: ALK kinase domain (amino acids 1093-1411); made in house
T3 sequence (Q9UM73 1093-1411): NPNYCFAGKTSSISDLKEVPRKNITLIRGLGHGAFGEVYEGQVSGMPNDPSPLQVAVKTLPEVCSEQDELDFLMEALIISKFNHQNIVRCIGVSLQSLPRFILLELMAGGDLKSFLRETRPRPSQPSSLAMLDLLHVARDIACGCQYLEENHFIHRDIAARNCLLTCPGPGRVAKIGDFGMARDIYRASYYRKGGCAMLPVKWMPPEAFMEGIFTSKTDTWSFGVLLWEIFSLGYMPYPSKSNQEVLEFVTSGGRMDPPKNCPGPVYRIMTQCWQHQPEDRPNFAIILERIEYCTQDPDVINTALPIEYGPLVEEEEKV
Put plainly: ALK enzyme assay 2 (microfluidic mobility shift assay).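 Note: kinase reaction run 1 h at room temperature, conversion quantified by electrophoretic separation of fluorescent peptide substrate from phosphorylated product, about 15-20% turnover without inhibitor.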 It counts as biochemical.
Protocol: The reactions were incubated for 1 h at room temperature, stopped by the addition of 0.1 M EDTA, pH 8, and the extent of reactions (˜15-20% conversion with no inhibitor) was determined after electrophoretic separation of the fluorescently labeled peptide substrate and phosphorylated product on an LabChip EZ Reader II (Caliper Life Sciences, Hopkinton, Mass.).

In assay [2] the target is EML4-ALK wt v1 in NIH-3T3 cells (Homo sapiens, UniProt Q9UM73).
EML4-ALK wt v1 in NIH-3T3 cells, sequence (Q9UM73 with tags, fused parts or gaps): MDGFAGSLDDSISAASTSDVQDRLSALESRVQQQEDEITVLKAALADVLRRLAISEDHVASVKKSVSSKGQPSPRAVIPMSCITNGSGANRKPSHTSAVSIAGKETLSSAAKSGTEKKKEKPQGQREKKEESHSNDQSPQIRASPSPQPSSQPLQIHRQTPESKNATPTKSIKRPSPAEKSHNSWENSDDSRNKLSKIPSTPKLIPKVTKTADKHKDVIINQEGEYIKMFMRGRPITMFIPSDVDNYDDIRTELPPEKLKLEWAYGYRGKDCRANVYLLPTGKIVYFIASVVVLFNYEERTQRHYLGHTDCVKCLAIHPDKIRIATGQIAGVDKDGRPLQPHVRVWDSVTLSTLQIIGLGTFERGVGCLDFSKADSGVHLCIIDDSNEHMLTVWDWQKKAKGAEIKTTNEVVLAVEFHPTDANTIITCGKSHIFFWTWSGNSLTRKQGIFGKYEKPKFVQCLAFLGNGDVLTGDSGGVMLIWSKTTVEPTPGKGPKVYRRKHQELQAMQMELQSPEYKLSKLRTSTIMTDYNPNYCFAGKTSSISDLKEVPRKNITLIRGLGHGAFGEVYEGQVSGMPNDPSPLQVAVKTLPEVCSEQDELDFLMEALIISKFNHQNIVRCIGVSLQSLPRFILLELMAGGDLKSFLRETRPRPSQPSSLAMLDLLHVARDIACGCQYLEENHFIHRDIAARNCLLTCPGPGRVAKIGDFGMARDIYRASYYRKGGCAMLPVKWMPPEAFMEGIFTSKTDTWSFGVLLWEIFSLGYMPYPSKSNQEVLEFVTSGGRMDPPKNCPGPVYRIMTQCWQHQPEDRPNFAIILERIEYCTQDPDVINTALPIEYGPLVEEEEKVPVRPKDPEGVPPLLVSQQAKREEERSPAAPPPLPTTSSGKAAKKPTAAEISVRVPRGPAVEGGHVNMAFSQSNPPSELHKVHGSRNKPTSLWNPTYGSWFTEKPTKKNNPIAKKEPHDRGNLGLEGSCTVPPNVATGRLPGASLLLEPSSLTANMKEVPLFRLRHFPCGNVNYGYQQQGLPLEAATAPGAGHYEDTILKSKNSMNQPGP

As to `CC(Oc1cc(-c2ccnn2C)cnc1N)c1cc(F)ccc1C#N` (single isomer, unassigned) [Example 44], the IC50 on ALK enzyme came to 57 nM; against cMet enzyme, 6480 nM; in assay [2], 411 nM. Further, the Ki in assay [1] is 6.9 nM.

For the compound `C=Cn1nnc(C)c1-c1cnc(N)c(OC(C)c2cc(F)ccc2OC)c1` (stereo not shown) [Example 1, 3-[1-(5-Fluoro-2-methoxyphenyl)ethoxy]-5-(4-methyl-1-vinyl-1H-1,2,3-triazol-5-yl)pyridin-2-amine], the IC50 on ALK enzyme was 61.4 nM; against cMet enzyme, over 18800 nM; in assay [2], 144 nM. Moreover, the Ki in assay [1] is 2.9 nM.

With `COc1ccc(F)cc1C(C)Oc1cc(-c2cnnn2CCO)cnc1N` (stereo not shown) [Example 2, 2-(5-{6-amino-5-[1-(5-fluoro-2-methoxyphenyl)ethoxy]-pyridin-3-yl}-1H-1,2,3-triazol-1-yl)ethanol], the results for the IC50 (against ALK enzyme; against cMet enzyme; in assay [2]) were 135 nM, over 20000 nM and over 1000 nM, respectively. Besides, in assay [1], the Ki was 220 nM.

As for `COc1ccc(F)cc1C(C)Oc1cc(-c2cncc(S(C)(=O)=O)c2)cnc1N` (stereo not shown) [Example 4, 5-[1-(5-fluoro-2-methoxyphenyl)ethoxy]-5′-(methylsulfonyl)-3,3′-bipyridin-6-amine], the half-inhibitory concentration (IC50) came out at 51.7 nM on ALK enzyme, 7610 nM on cMet enzyme and 72.4 nM in assay [2]. Moreover, the Ki in assay [1] was 1.93 nM.

Turning to `COc1ccc(F)cc1C(C)Oc1cc(-c2cnc(N)nc2C)cnc1N` (stereo not shown) [Example 5, 5-{6-amino-5-[1-(5-fluoro-2-methoxyphenyl)ethoxy]-pyridin-3-yl}-4-methylpyrimidin-2-amine], the values for the 50% inhibitory concentration (IC50) at ALK enzyme and at cMet enzyme were 48 nM and 13000 nM, respectively.

In the case of `COc1ccc(F)cc1C(C)Oc1cc(-c2c(C)n[nH]c2C)cnc1N` (stereo not shown) [Example 6, 5-(3,5-dimethyl-1H-pyrazol-4-yl)-3-[1-(5-fluoro-2-methoxyphenyl)ethoxy]-pyridin-2-amine], the results for the IC50 against ALK enzyme and against cMet enzyme were 33.6 nM and 6740 nM, respectively. The Ki in assay [1] is 0.62 nM.

As for `COc1ccc(F)cc1C(C)Oc1cc(-c2c(C)nn(C)c2C)cnc1N` (stereo not shown) [Example 7, 3-[1-(5-fluoro-2-methoxyphenyl)ethoxy]-5-(1,3,5-trimethyl-1H-pyrazol-4-yl)pyridin-2-amine], the concentration for half-maximal inhibition (IC50) was 44.9 nM at ALK enzyme, 10200 nM against cMet enzyme and 33 nM in assay [2]. The Ki in assay [1] turned out to be 0.536 nM.

Consider `COc1ccc(F)cc1C(C)Oc1cc(-c2cccnc2O)cnc1N` (stereo not shown) [Example 8, 6′-amino-5′-[1-(5-fluoro-2-methoxyphenyl)ethoxy]-3,3′-bipyridin-2-ol], for which the half-inhibitory concentration (IC50) was 98.2 nM at ALK enzyme and 17400 nM against cMet enzyme.

Take `COc1ccc(F)cc1C(C)Oc1cc(-c2c(C)nnn2C)cnc1N` (stereo not shown) [Example 10, 5-(1,4-dimethyl-1H-1,2,3-triazol-5-yl)-3-[1-(5-fluoro-2-methoxyphenyl)ethoxy]-pyridin-2-amine]: the IC50 was 86 nM against ALK enzyme, over 20000 nM against cMet enzyme and 361 nM in assay [2].

Turning to `COc1ccc(F)cc1C(C)Oc1cc(-c2ccnn2CCO)cnc1N` (stereo not shown) [Example 11, 2-(5-{6-amino-5-[1-(5-fluoro-2-methoxyphenyl)ethoxy]-pyridin-3-yl}-1H-pyrazol-1-yl)ethanol], the half-inhibitory concentration (IC50) against ALK enzyme was 52.2 nM; against cMet enzyme it was over 20000 nM; in assay [2] it was 245 nM. The Ki in assay [1] is 6.3 nM.

Take `COc1ccc(F)cc1C(C)Oc1cc(-c2cnn(C)c2CO)cnc1N` (stereo not shown) [Example 12, (4-{6-amino-5-[1-(5-fluoro-2-methoxyphenyl)ethoxy]-pyridin-3-yl}-1-methyl-1H-pyrazol-5-yl)methanol]: the IC50 worked out at 70.6 nM on ALK enzyme, 8420 nM against cMet enzyme and 194 nM in assay [2]. For the same compound, the inhibition constant Ki in assay [1] is 2.1 nM.

Regarding `COc1ccc(F)cc1C(C)Oc1cc(-c2ncsc2CO)cnc1N` (stereo not shown) [Example 13, (4-{6-amino-5-[1-(5-fluoro-2-methoxyphenyl)ethoxy]-pyridin-3-yl}-1,3-thiazol-5-yl)methanol], the IC50 was 132 nM against ALK enzyme, over 20000 nM on cMet enzyme and 591 nM in assay [2]. In assay [1], the Ki stood at 5.5 nM.

Take `COc1ccc(F)cc1C(C)Oc1cc(-c2scnc2CO)cnc1N` (stereo not shown) [Example 14, (5-{6-amino-5-[1-(5-fluoro-2-methoxyphenyl)ethoxy]-pyridin-3-yl}-1,3-thiazol-4-yl)methanol]: the IC50 against ALK enzyme stood at 74.8 nM; at cMet enzyme it was 8290 nM.

As to `COc1ccc(F)cc1C(C)Oc1cc(-c2cccn(C)c2=O)cnc1N` (stereo not shown) [Example 15, 6′-amino-5′-[1-(5-fluoro-2-methoxyphenyl)ethoxy]-1-methyl-3,3′-bipyridin-2(1H)-one], the IC50 at ALK enzyme was 177 nM; against cMet enzyme, over 20000 nM; in assay [2], 904 nM. Also, in assay [1], the inhibitory constant (Ki) is 16 nM.

For `COc1ccc(F)cc1C(C)Oc1cc(-c2c(OC)cnn2C)cnc1N` (stereo not shown) [Example 16, 3-[1-(5-fluoro-2-methoxyphenyl)ethoxy]-5-(4-methoxy-1-methyl-1H-pyrazol-5-yl)pyridin-2-amine], the values for the IC50 (on ALK enzyme; against cMet enzyme; in assay [2]) were 38.1 nM, 11200 nM and 123 nM, respectively. Also, the inhibition constant Ki in assay [1] was 1.3 nM.

`COc1ccc(F)cc1C(C)Oc1cc(-c2cc(Cl)nnc2N)cnc1N` (stereo not shown) [Example 17, 4-{6-amino-5-[1-(5-fluoro-2-methoxyphenyl)ethoxy]-pyridin-3-yl}-6-chloropyridazin-3-amine]: the 50% inhibitory concentration (IC50) at ALK enzyme amounted to 133 nM; on cMet enzyme it was 13200 nM; in assay [2] it was 672 nM. For the same compound, the inhibition constant Ki in assay [1] was 11 nM.

For the compound `COc1ccc(F)cc1C(C)Oc1cc(-c2c(CO)cnn2C)cnc1N` (stereo not shown) [Example 18, (5-{6-amino-5-[1-(5-fluoro-2-methoxyphenyl)ethoxy]pyridin-3-yl}-1-methyl-1H-pyrazol-4-yl)methanol], the IC50 was 92.6 nM against ALK enzyme, over 20000 nM against cMet enzyme and 421 nM in assay [2]. The Ki in assay [1] turned out to be 8.1 nM.

Regarding `COc1ccc(F)cc1C(C)Oc1cc(-c2cccnc2OCCO)cnc1N` (stereo not shown) [Example 19, 2-{6′-Amino-5′-[1-(5-fluoro-2-methoxy-phenyl)-ethoxy]-[3,3]bipyridinyl-2-yloxy}-ethanol], the half-maximal inhibitory concentration (IC50) against ALK enzyme was 78.7 nM; against cMet enzyme, over 19700 nM; in assay [2] it was 53.5 nM. For the same compound, the Ki in assay [1] was 1.05 nM.

For the compound `COc1ccc(F)cc1[C@@H](C)Oc1cc(-c2cncn2C)cnc1N` [Example 22, 3-[(1R)-1-(5-fluoro-2-methoxyphenyl)-ethoxy]-5-(1-methyl-1H-imidazol-5-yl)pyridin-2-amine], the IC50 against ALK enzyme stood at 38 nM; against cMet enzyme it was 3680 nM; in assay [2], 47.5 nM.

In the case of `COc1ccc(F)cc1[C@@H](C)Oc1cc(-c2c(C)ncn2C)cnc1N` [Example 25, 5-(1,4-dimethyl-1H-imidazol-5-yl)-3-[(1R)-1-(5-fluoro-2-methoxyphenyl)-ethoxy]pyridin-2-amine], the IC50 on ALK enzyme came to 38.2 nM; at cMet enzyme, 13200 nM.

Consider `C[C@@H](Oc1cc(-c2scnc2CO)cnc1N)c1cc(F)ccc1-n1nccn1` [Example 28], for which the half-inhibitory concentration (IC50) at ALK enzyme was found to be 63.5 nM; against cMet enzyme it was 13000 nM.

In the case of `C[C@@H](Oc1cc(-c2c(F)cnn2C)cnc1N)c1cc(F)ccc1-n1nccn1` [Example 29], the results for the 50% inhibitory concentration (IC50) (at ALK enzyme; against cMet enzyme; in assay [2]) were 30 nM, 7480 nM and 151 nM, respectively.

In turn, `Cc1n[nH]cc1-c1cnc(N)c(OC(C)c2cc(F)ccc2-n2nccn2)c1` (stereo not shown) [Example 39, 3-{1-[5-fluoro-2-(2H-1,2,3-triazol-2-yl)phenyl]-ethoxy}-5-(3-methyl-1H-pyrazol-4-yl)pyridin-2-amine] gave an IC50 on cMet enzyme of 4500 nM.

On cMet enzyme, `Cc1n[nH]cc1-c1cnc(N)c(O[C@H](C)c2cc(F)ccc2C#N)c1` [Example 40, 2-[(1R)-1-{[2-amino-5-(3-methyl-1H-pyrazol-4-yl)pyridin-3-yl]oxy}ethyl]-4-fluorobenzonitrile] came in with a half-inhibitory concentration (IC50) of 1350 nM.

In the case of `COc1ccc(F)cc1C(C)Oc1cc(-c2ccnn2C)cnc1N` (stereo not shown) [Example 43, 3-[1-(5-fluoro-2-methoxyphenyl)-ethoxy]-5-(1-methyl-1H-pyrazol-5-yl)pyridin-2-amine monohydrochloride], the IC50 at ALK enzyme turned out to be 34.9 nM; on cMet enzyme it was 5090 nM. The inhibition constant Ki in assay [1] is under 0.249 nM.

For the compound `COc1ncccc1-c1cnc(N)c(OC(C)c2cc(F)ccc2-n2nccn2)c1` (stereo not shown) [Example 46, 5-{1-[5-fluoro-2-(2H-1,2,3-triazol-2-yl)phenyl]-ethoxy}-2′-methoxy-3,3′-bipyridin-6-amine], on cMet enzyme, the half-inhibitory concentration (IC50) worked out at 6850 nM.

For `Cc1n[nH]c(C)c1-c1cnc(N)c(OC(C)c2cc(F)ccc2-n2nccn2)c1` (stereo not shown) [Example 49, 5-(3,5-dimethyl-1H-pyrazol-4-yl)-3-{1-[5-fluoro-2-(2H-1,2,3-triazol-2-yl)phenyl]-ethoxy}pyridin-2-amine], the IC50 amounted to 114 nM on ALK enzyme and 13100 nM against cMet enzyme.
